Experimental data reported in US20240228488A1 (TAKEDA PHARMACEUTICAL COMPANY LIMITED, priority 2021, published 2024).

Experiments:
[1] = target: T1, plasma kallikrein (Homo sapiens, UniProt P03952); test: Neat human plasma assay, FXIIa contact pathway-activated, PFR-AMC substrate; format: biochemical; conditions: citrated human plasma 78% final, 10 nM human FXIIa, 100 μM PFR-AMC; read-out: Human Plasma Assay: IC90
T1 construct: from tissue
Outline: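 Compound inhibition of plasma kallikrein measured as PFR-AMC (100 μM) cleavage rate over 5 min at room temperature in 78% citrated human plasma activated with 10 nM FXIIa (Tris pH 7.5 buffer). IC50/IC90 from 4-parameter fit of rate versus inhibitor concentration.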

[2] = target: human activated kallikrein enzyme (Homo sapiens, UniProt P03952); test: Plasma kallikrein inhibition, fluorogenic PFR-AMC substrate, 500 pM activated kallikrein format; format: biochemical; conditions: 500 pM activated kallikrein, 300 uM PFR-AMC, 30 min preincubation, 10 min reaction; read-out: Primary Dose Response Assay: Average EC50
Outline: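 Fluorescence (ex 380/em 460 nm) is read after 10 min of 300 uM PFR-AMC turnover by 500 pM enzyme at RT. Compounds sit with enzyme for 30 min beforehand. Buffer is Tris (pH 7.5) with EDTA, NaCl, PEG-400 and Triton X-100; EC50 values are banded.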

T1 sequence (P03952 391-638 limits assumed): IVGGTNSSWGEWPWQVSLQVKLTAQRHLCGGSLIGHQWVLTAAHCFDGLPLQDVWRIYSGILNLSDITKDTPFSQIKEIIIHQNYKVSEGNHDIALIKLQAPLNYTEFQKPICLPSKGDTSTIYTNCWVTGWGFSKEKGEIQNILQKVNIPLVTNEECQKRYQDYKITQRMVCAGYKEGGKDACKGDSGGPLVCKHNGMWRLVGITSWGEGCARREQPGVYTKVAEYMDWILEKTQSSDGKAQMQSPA
T1 sequence (P03952 20-390 partner limits assumed): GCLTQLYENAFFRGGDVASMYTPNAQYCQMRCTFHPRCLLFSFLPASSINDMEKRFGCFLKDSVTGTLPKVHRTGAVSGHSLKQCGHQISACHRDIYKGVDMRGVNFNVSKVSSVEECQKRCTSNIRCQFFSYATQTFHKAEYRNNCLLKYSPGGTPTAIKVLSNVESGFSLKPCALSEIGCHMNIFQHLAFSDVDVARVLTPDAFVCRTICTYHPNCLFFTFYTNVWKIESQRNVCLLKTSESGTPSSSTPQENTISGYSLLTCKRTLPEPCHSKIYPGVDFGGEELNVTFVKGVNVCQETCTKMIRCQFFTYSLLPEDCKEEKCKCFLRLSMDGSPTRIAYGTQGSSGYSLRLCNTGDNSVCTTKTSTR
Chain of human activated kallikrein enzyme (P03952 391-638 limits assumed): as the sequence (P03952 391-638 limits assumed) above
Chain of human activated kallikrein enzyme (P03952 20-390 partner limits assumed): as the sequence (P03952 20-390 partner limits assumed) above

COCc1cnc(NC(=O)[C@H]2C[C@@H]2c2nccc(C)n2)nc1NCc1cn2cc(C3CC3)cc(N3CC(=O)N(C)C3=O)c2n1 (racemic) [Example 621, rac-(1S*,2S*)—N-(4-(((6-cyclopropyl-8-(3-methyl-2,4-dioxoimidazolidin-1-yl)imidazo[1,2-a]pyridin-2-yl)methyl)amino)-5-(methoxymethyl)pyrimidin-2-yl)-2-(4-methylpyrimidin-2-yl)cyclopropane-1-carboxamide]
IC90 [1]: < 400 nM | EC50 [2]: < 1 nM

Cc1ccnc([C@H]2C[C@@H]2C(=O)Nc2nc(Cl)nc(NCc3cn4cc(C5CC5)cc(N5CC(=O)N(C)C5=O)c4n3)n2)n1 (racemic) [Example 622, rac-(1S*,2S*)—N-(4-chloro-6-(((6-cyclopropyl-8-(3-methyl-2,4-dioxoimidazolidin-1-yl)imidazo[1,2-a]pyridin-2-yl)methyl)amino)-1,3,5-triazin-2-yl)-2-(4-methylpyrimidin-2-yl)cyclopropane-1-carboxamide]
IC90 [1]: 400 to 1500 nM | EC50 [2]: < 1 nM

Cc1ccnc([C@H]2C[C@@H]2C(=O)Nc2ncnc(NCc3cn4cc(C5CC5)cc(N5CC(=O)N(C)C5=O)c4n3)n2)n1 (racemic) [Example 623, rac-(1S*,2S*)—N-(4-(((6-cyclopropyl-8-(3-methyl-2,4-dioxoimidazolidin-1-yl)imidazo[1,2-a]pyridin-2-yl)methyl)amino)-1,3,5-triazin-2-yl)-2-(4-methylpyrimidin-2-yl)cyclo propane-1-carboxamide]
IC90 [1]: < 400 nM | EC50 [2]: < 1 nM

Cc1ccnc([C@H]2C[C@@H]2C(=O)Nc2ncc(CO)c(NCc3cn4cc(C5CC5)cc(N5CC(=O)N(C)C5=O)c4n3)n2)n1 (racemic) [Example 627, rac-(1S*,2S*)—N-(4-(((6-cyclopropyl-8-(3-methyl-2,4-dioxoimidazolidin-1-yl)imidazo[1,2-a]pyridin-2-yl)methyl)amino)-5-(hydroxymethyl)pyrimidin-2-yl)-2-(4-methylpyrimidin-2-yl)cyclopropane-1-carboxamide]
IC90 [1]: < 400 nM | EC50 [2]: < 1 nM

Cc1ccnc([C@H]2C[C@@H]2C(=O)Nc2ncc(C(F)(F)F)c(OCc3cn4cc(C5CC5)cc(N5CC(=O)N(C)C5=O)c4n3)n2)n1 (racemic) [Example 628, rac-(1S*,2S*)—N-(4-((6-cyclopropyl-8-(3-methyl-2,4-dioxoimidazolidin-1-yl)imidazo[1,2-a]pyridin-2-yl)methoxy)-5-(trifluoromethyl)pyrimidin-2-yl)-2-(4-methylpyrimidin-2-yl)cyclopropane-1-carboxamide]
IC90 [1]: 400 to 1500 nM | EC50 [2]: < 1 nM

CN1C(=O)CN(c2cc(C3CC3)cn3cc(CNc4cc(NC(=O)[C@H]5C[C@@H]5c5nccc(CF)n5)ncn4)nc23)C1=O (racemic) [Example I-163, rac-(1S*,2S*)-N-(6-(((6-cyclopropyl-8-(3-methyl-2,4-dioxoimidazolidin-1-yl)imidazo[1,2-a]pyridin-2-yl)methyl)amino)pyrimidin-4-yl)-2-(4-(fluoromethyl)pyrimidin-2-yl)cyclopropane-1-carboxamide]
IC90 [1]: 400 to 1500 nM | EC50 [2]: < 1 nM

CN1C(=O)CN(c2cc(C3CC3)cn3cc(CNc4cc(NC(=O)[C@H]5C[C@@H]5c5nccc(C(F)F)n5)ncn4)nc23)C1=O (racemic) [Example I-164, rac-(1S*,2S*)-N-(6-(((6-cyclopropyl-8-(3-methyl-2,4-dioxoimidazolidin-1-yl)imidazo[1,2-a]pyridin-2-yl)methyl)amino)pyrimidin-4-yl)-2-(4-(difluoromethyl)pyrimidin-2-yl)cyclopropane-1-carboxamide]
IC90 [1]: 400 to 1500 nM | EC50 [2]: 1 to 10 nM

Cc1ccc(C#N)c([C@H]2C[C@@H]2C(=O)Nc2cc(NCc3cn4cc(C5CC5)cc(N5CC(=O)N(C)C5=O)c4n3)ncn2)n1 (racemic) [Example I-166, rac-(1S*,2S*)-2-(3-cyano-6-methylpyridin-2-yl)-N-(6-(((6-cyclopropyl-8-(3-methyl-2,4-dioxoimidazolidin-1-yl)imidazo[1,2-a]pyridin-2-yl)methyl)amino)pyrimidin-4-yl)cyclopropane-1-carboxamide]
IC90 [1]: 400 to 1500 nM | EC50 [2]: < 1 nM

CN1C(=O)CN(c2cc(C3CC3)cn3cc(CNc4cc(NC(=O)[C@H]5C[C@@H]5c5nc(Cl)ccc5C#N)ncn4)nc23)C1=O (racemic) [Example I-167, rac-(1S*,2S*)-2-(6-chloro-3-cyanopyridin-2-yl)-N-(6-(((6-cyclopropyl-8-(3-methyl-2,4-dioxoimidazolidin-1-yl)imidazo[1,2-a]pyridin-2-yl)methyl)amino)pyrimidin-4-yl)cyclopropane-1-carboxamide]
IC90 [1]: 400 to 1500 nM | EC50 [2]: < 1 nM

CN1C(=O)CN(c2cc(C3CC3)cn3cc(CNc4cc(NC(=O)[C@H]5C[C@@H]5c5nccc(Cl)n5)ncn4)nc23)C1=O (racemic) [Example I-168, rac-(1S*,2S*)-2-(4-chloropyrimidin-2-yl)-N-(6-(((6-cyclopropyl-8-(3-methyl-2,4-dioxoimidazolidin-1-yl)imidazo[1,2-a]pyridin-2-yl)methyl)amino)pyrimidin-4-yl)cyclopropane-1-carboxamide]
IC90 [1]: 400 to 1500 nM | EC50 [2]: < 1 nM

CN1C(=O)CN(c2cc(C3CC3)cn3cc(CNc4cc(NC(=O)[C@H]5C[C@@H]5c5cc(Cl)ccc5C#N)ncn4)nc23)C1=O (racemic) [Example I-170, rac-(1S*,2S*)-2-(5-chloro-2-cyanophenyl)-N-(6-(((6-cyclopropyl-8-(3-methyl-2,4-dioxoimidazolidin-1-yl)imidazo[1,2-a]pyridin-2-yl)methyl)amino)pyrimidin-4-yl)cyclopropane-1-carboxamide]
IC90 [1]: 1500 to 10000 nM | EC50 [2]: < 1 nM

O=C(Nc1cc(NCc2cn3cc(C4CC4)cc(N4CCOC4=O)c3n2)ncn1)[C@H]1C[C@@H]1c1cc(Cl)ccn1 (racemic) [Example I-173, rac-(1S*,2S*)-2-(4-chloropyridin-2-yl)-N-(6-(((6-cyclopropyl-8-(2-oxooxazolidin-3-yl)imidazo[1,2-a]pyridin-2-yl)methyl)amino)pyrimidin-4-yl)cyclopropane-1-carboxamide]
IC90 [1]: 400 to 1500 nM | EC50 [2]: < 1 nM

CN1CCN(c2cc(C3CC3)cn3cc(CNc4cc(NC(=O)[C@H]5C[C@@H]5c5cc(Cl)ccn5)ncn4)nc23)CC1 (racemic) [Example I-192, rac-(1S*,2S*)-2-(4-chloropyridin-2-yl)-N-(6-(((6-cyclopropyl-8-(4-methylpiperazin-1-yl)imidazo[1,2-a]pyridin-2-yl)methyl)amino)pyrimidin-4-yl)cyclopropane-1-carboxamide]
IC90 [1]: 1500 to 10000 nM | EC50 [2]: < 1 nM

CN1CCN(c2cc(C3CC3)cn3cc(CNc4cc(NC(=O)[C@H]5C[C@@H]5c5cc(Cl)ccn5)ncn4)nc23)C(=O)C1 (racemic) [Example I-195, rac-(1S*,2S*)-2-(4-chloropyridin-2-yl)-N-(6-(((6-cyclopropyl-8-(4-methyl-2-oxopiperazin-1-yl)imidazo[1,2-a]pyridin-2-yl)methyl)amino)pyrimidin-4-yl)cyclopropane-1-carboxamide]
IC90 [1]: 400 to 1500 nM | EC50 [2]: < 1 nM

Cc1ccnc([C@H]2C[C@@H]2C(=O)Nc2cc(NCc3cn4cc(C5CC5)cc(N5CC(=O)N(C)C5=O)c4n3)ccn2)n1 (racemic) [Example I-208, rac-(1S*,2S*)-N-(4-(((6-cyclopropyl-8-(3-methyl-2,4-dioxoimidazolidin-1-yl)imidazo[1,2-a]pyridin-2-yl)methyl)amino)pyridin-2-yl)-2-(4-methylpyrimidin-2-yl)cyclopropane-1-carboxamide]
IC90 [1]: < 400 nM | EC50 [2]: < 1 nM

O=C(Nc1cc(NCc2cn3cc(C4CC4)ccc3n2)ccn1)[C@@]1(F)C[C@@H]1c1cccc(Cl)c1 (racemic) [Example I-217, rac-(1S*,2S*)-2-(3-chlorophenyl)-N-(4-(((6-cyclopropylimidazo[1,2-a]pyridin-2-yl)methyl)amino)pyridin-2-yl)-1-fluorocyclopropane-1-carboxamide]
IC90 [1]: 10000 to 48000 nM | EC50 [2]: 1 to 10 nM

O=C(Nc1cc(NCc2cn3cc(C4CC4)ccc3n2)ccn1)[C@H]1C[C@@H]1c1cc(Cl)cs1 (racemic) [Example I-219, rac-(1S*,2S*)-2-(4-chlorothiophen-2-yl)-N-(4-(((6-cyclopropylimidazo[1,2-a]pyridin-2-yl)methyl)amino)pyridin-2-yl)cyclopropane-1-carboxamide]
IC90 [1]: 10000 to 48000 nM | EC50 [2]: 1 to 10 nM

Nc1ccc(Cl)cc1[C@H]1C[C@@H]1C(=O)Nc1cc(NCc2cn3cc(C4CC4)ccc3n2)ccn1 (racemic) [Example I-222, rac-(1S*,2S*)-2-(2-amino-5-chlorophenyl)-N-(4-(((6-cyclopropylimidazo[1,2-a]pyridin-2-yl)methyl)amino)pyridin-2-yl)cyclopropane-1-carboxamide]
IC90 [1]: > 48000 nM | EC50 [2]: 1 to 10 nM

O=C(Nc1cc(NCc2cn3cc(C4CC4)ccc3n2)ccn1)[C@H]1C[C@@H]1c1cc(Cl)ccc1[N+](=O)[O-] (racemic) [Example I-223, rac-(1S*,2S*)-2-(5-chloro-2-nitrophenyl)-N-(4-(((6-cyclopropylimidazo[1,2-a]pyridin-2-yl)methyl)amino)pyridin-2-yl)cyclopropane-1-carboxamide]
IC90 [1]: > 48000 nM | EC50 [2]: < 1 nM

O=C(Nc1cc(NCc2cn3cc(C4CC4)cc(C4(O)COC4)c3n2)ccn1)[C@H]1C[C@@H]1c1cccc(Cl)c1 (racemic) [Example I-242, rac-(1S*,2S*)-2-(3-chlorophenyl)-N-(4-(((6-cyclopropyl-8-(3-hydroxyoxetan-3-yl)imidazo[1,2-a]pyridin-2-yl)methyl)amino)pyridin-2-yl)cyclopropane-1-carboxamide]
IC90 [1]: 1500 to 10000 nM | EC50 [2]: < 1 nM
